Assay results as given in US6720343B2, “Oxadiazole derivatives having anticancer effects” (Shionogi & Co., Ltd., priority 2002, dated 2004).
Where two headings read alike, the source gives them in different places.

Legend:
MMP-2 = target: T1, MMP-2 (Homo sapiens, UniProt P08253); assay: Assay for inhibitory activities on MMPs (fluorogenic peptide substrate), MMP-2; type: biochemical
T1 construct: purchased Calbiochem-Novabiochem International, Inc
T1 sequence (P08253 110-660): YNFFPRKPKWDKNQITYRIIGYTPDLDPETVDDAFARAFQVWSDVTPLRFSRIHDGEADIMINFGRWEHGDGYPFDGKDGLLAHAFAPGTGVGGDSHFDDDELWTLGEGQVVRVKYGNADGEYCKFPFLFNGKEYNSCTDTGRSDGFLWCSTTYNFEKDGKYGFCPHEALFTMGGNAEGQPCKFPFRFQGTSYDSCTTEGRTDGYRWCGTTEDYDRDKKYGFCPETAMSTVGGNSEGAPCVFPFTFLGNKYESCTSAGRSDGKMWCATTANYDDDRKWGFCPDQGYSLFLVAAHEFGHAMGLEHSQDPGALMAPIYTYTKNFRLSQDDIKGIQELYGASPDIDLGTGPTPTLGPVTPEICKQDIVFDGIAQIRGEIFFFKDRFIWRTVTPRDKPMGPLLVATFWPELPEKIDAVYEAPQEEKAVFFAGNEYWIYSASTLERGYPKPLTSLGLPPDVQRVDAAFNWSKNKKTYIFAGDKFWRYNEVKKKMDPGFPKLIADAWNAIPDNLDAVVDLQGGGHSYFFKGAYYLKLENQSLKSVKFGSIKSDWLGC
Procedure: MMP-2 was purchased from Calbiochem-Novabiochem International, Inc.
(§1) The enzymatic activity on MMPs was analyzed by the method described in “C. […] The substrate (MOCAc-Pro-Leu-Gly-Leu-A2Pr(DNP)-Ala-Arg-NH2) was purchased from Peptide Institute, Inc., Osaka, Japan.
(§2) The measurement of the inhibitory activities (IC50) was carried out by the following four methods;
(§3) A) Reaction with substrate, enzyme (MMPs) and inhibitor
(§4) B) Reaction with substrate and inhibitor, without enzyme
(§5) C) Reaction with substrate and enzyme (MMPs), without inhibitor
(§6) D) Reaction with substrate only
(§7) IC50 values were calculated by using the following formula and each fluorescence values of above four methods (A to D).
(§8) % inhibition={1−(A−B)/(C−D)}×100

MMP-9 = target: T2, MMP-9 (Homo sapiens, UniProt P14780); assay: Assay for inhibitory activities on MMPs (fluorogenic peptide substrate), MMP-9; type: biochemical
T2 construct: purchased Calbiochem-Novabiochem International, Inc
T2 sequence (P14780 94-707): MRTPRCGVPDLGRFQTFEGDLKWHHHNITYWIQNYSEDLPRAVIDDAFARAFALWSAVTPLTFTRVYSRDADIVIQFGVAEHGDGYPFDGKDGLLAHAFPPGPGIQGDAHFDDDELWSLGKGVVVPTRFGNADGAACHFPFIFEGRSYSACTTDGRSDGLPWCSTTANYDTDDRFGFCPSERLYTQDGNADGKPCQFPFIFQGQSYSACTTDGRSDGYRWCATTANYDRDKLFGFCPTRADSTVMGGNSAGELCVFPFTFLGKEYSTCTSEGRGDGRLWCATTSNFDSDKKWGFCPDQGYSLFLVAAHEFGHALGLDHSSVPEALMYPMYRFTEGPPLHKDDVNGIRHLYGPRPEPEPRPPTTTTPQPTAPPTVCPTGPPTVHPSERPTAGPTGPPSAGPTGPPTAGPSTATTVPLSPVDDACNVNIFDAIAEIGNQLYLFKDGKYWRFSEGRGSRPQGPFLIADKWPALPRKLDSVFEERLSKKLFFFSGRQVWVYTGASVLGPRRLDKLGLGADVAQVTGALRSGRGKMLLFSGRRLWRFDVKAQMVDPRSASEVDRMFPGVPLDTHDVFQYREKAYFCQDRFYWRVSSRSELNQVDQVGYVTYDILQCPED
Procedure: MMP-9 was purchased from Calbiochem-Novabiochem International, Inc.
as §1, §2, §3, §4, §5, §6, §7, §8

[1] = system: Lewis mouse lung carcinoma cells; assay: Antitumor efficacy using artificial lung metastasis of Lewis mouse lung carcinoma; type: in vivo, BDF1 mice; conditions: for inhibition in vivo at 20 mg/kg / inhibition in vivo at 200 mg/kg / inhibition in vivo at 2 mg/kg: Mus musculus, po, 336 h, read-out: Inhibition (%)
Procedure: Lewis mouse lung carcinoma cells (4×10^5 cells) were inoculated into the tail vein of BDF1 mice. […] The doses of the compounds were 20 and 200 mg/kg or 2 and 20 mg/kg. At 14 day after tumor inoculation, tumor nodules formed in the lung of the treated mice were counted and the antitumor efficacy was evaluated.

MMP-8 Catalytic domain = target: T3, MMP-8 Catalytic domain (Homo sapiens, UniProt P22894); assay: Assay for inhibitory activities on MMPs (fluorogenic peptide substrate), MMP-8; type: biochemical
T3 construct: MMP-8 Catalytic domain (^99Phe˜^262Gly); His-tag; Enterokinase digestion site; made in house; host or cells: E. coli
T3 sequence (P22894 99-262): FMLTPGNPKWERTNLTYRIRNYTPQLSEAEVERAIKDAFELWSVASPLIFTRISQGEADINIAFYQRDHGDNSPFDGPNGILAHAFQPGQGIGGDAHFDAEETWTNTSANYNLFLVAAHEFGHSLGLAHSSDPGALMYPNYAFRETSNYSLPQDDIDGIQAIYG
Procedure: The DNA fragment was cloned into an E. coli expression vector, pTrc99A containing the His-tag sequence and Enterokinase digestion site. The MMP-8 Catalytic domain expression was induced by the addition of IPTG (Isopropyl-β-D-thiogalactopyranoside), and the cell pellet containing MMP-8 Catalytic domain was obtained. […] Isolation of MMP-8 from the cell pellet was used by general techniques. After the cell pellet was dissolved in 6M urea, the solution was loaded onto a metal-chelating matrix. Subsequently, dialysis was used to remove urea and refold of MMP=8. And then active MMP-8 was obtained.
as §1, §2, §3, §4, §5, §6, §7, §8

[2] = experiment 3-1, 20 mg/kg oral, five times, lung tumor nodules at day 14
[3] = experiment 3-1, 200 mg/kg oral, five times, lung tumor nodules at day 14
[4] = experiment 3-2, 20 mg/kg oral, five times, lung tumor nodules at day 14
[5] = experiment 3-2, 200 mg/kg oral, five times, lung tumor nodules at day 14
[6] = experiment 3-3, 2 mg/kg oral, five times, lung tumor nodules at day 14
[7] = experiment 3-3, 20 mg/kg oral, five times, lung tumor nodules at day 14

Row | Compound | IC50 (MMP-2) [nM] | melting point [°C] | IC50 (MMP-9) [nM] | IC50 (MMP-8 Catalytic domain) [nM] | inhibition in vivo at 20 mg/kg [1, 2] [%] | inhibition in vivo at 200 mg/kg [1, 3] [%] | Number of colonies (Mean ± SD) [1, 2] | Number of colonies (Mean ± SD) [1, 3] | inhibition in vivo at 20 mg/kg [1] [%] | inhibition in vivo at 200 mg/kg [1] [%] | inhibition in vivo at 20 mg/kg [1, 4] [%] | inhibition in vivo at 200 mg/kg [1, 5] [%] | Number of colonies (Mean ± SD) [1, 4] | Number of colonies (Mean ± SD) [1, 5] | inhibition in vivo at 2 mg/kg [1] [%] | Number of colonies (Mean ± SD) [1, 6] | Number of colonies (Mean ± SD) [1, 7] | inhibition in vivo at 2 mg/kg [1, 6] [%] | inhibition in vivo at 20 mg/kg [1, 7] [%]
1 | Cc1ccc(-c2noc(-c3ccc(S(=O)(=O)N[C@H](Cc4ccccc4)C(=O)O)cc3)n2)cc1 [Compound A-3] | 15 | – | 384 | 775 | – | – | – | – | – | – | – | – | – | – | – | – | – | – | –
2 | C[C@@H](NS(=O)(=O)c1ccc(-c2nc(-c3ccc(Cl)cc3)no2)cc1)C(=O)O [Compound A-4] | 26 | – | 190 | > 1000 | – | – | 19.2 ± 9.4 | 23.3 ± 12.8 | 55 | 46 | – | – | – | – | – | – | – | – | –
3 | Cc1ccc(-c2noc(-c3ccc(S(=O)(=O)N[C@@H](Cc4ccccc4)C(=O)O)cc3)n2)cc1 [Compound A-8] | 51 | – | 479 | > 1000 | – | – | 18.8 ± 11.4 | 15.7 ± 5.5 | 56 | 63 | – | – | – | – | – | – | – | – | –
4 | Cc1ccc(-c2noc(-c3ccc(S(=O)(=O)N[C@@H](C(=O)O)C(C)C)cc3)n2)s1 [Compound A-93] | 6 | – | 47 | 88 | – | – | – | – | 50 | – | – | – | – | – | 41 | 36.3 ± 9.2 | 30.8 ± 10.8 | – | –
5 | O=C(O)[C@@H](Cc1c[nH]c2ccccc12)NSOOc1ccc(-c2nnn(-c3ccccc3)n2)cc1 [Compound B-1, reference compound] | – | – | – | – | 38 | 46 | 26.5 ± 19.5 | 23.0 ± 7.6 | – | – | 37 | 31 | 34.8 ± 14.5 | 38.3 ± 20.7 | – | 53.5 ± 18.5 | 37.5 ± 13.0 | 14 | 39

Continued, in another order:

Row | IC50 (MMP-2) [nM] | melting point [°C] | IC50 (MMP-9) [nM] | IC50 (MMP-8 Catalytic domain) [nM] | Compound | inhibition in vivo at 20 mg/kg [1, 2] [%] | inhibition in vivo at 200 mg/kg [1, 3] [%] | Number of colonies (Mean ± SD) [1, 2] | Number of colonies (Mean ± SD) [1, 3] | inhibition in vivo at 20 mg/kg [1] [%] | inhibition in vivo at 200 mg/kg [1] [%] | inhibition in vivo at 20 mg/kg [1, 4] [%] | inhibition in vivo at 200 mg/kg [1, 5] [%] | Number of colonies (Mean ± SD) [1, 4] | Number of colonies (Mean ± SD) [1, 5] | inhibition in vivo at 2 mg/kg [1] [%] | Number of colonies (Mean ± SD) [1, 6] | Number of colonies (Mean ± SD) [1, 7] | inhibition in vivo at 2 mg/kg [1, 6] [%] | inhibition in vivo at 20 mg/kg [1, 7] [%]
6 | 30 | 200 to 203 | 470 | > 1000 | Cc1ccc(-c2noc(-c3ccc(S(=O)(=O)N[C@H](C)C(=O)O)cc3)n2)cc1 [Compound A-1] | 53 | 69 | 20.2 ± 13.3 | 13.3 ± 11.8 | – | – | – | – | – | – | – | – | – | – | –
7 | 53 | 221 to 222 | > 1000 | > 1000 | O=C(O)[C@@H](Cc1ccccc1)NS(=O)(=O)c1ccc(-c2nc(-c3ccccc3)no2)cc1 [Compound A-2] | – | – | – | – | – | – | – | – | – | – | – | – | – | – | –
8 | 30 | – | > 1000 | 610 | CC(C)[C@@H](NS(=O)(=O)c1ccc(-c2nc(-c3cccs3)no2)cc1)C(=O)O [Compound A-5] | – | – | – | – | – | – | 24 | 37 | 41.8 ± 22.5 | 34.8 ± 12.1 | – | – | – | – | –
9 | 50 | – | > 1000 | > 1000 | C[C@@H](NS(=O)(=O)c1ccc(-c2nc(-c3ccc(F)cc3)no2)cc1)C(=O)O [Compound A-6] | – | – | – | – | – | – | 26 | 57 | 40.8 ± 13.5 | 24.0 ± 9.7 | – | – | – | – | –
10 | 8 | – | 78 | > 1000 | CCc1ccc(-c2noc(-c3ccc(S(=O)(=O)N[C@H](Cc4ccccc4)C(=O)O)cc3)n2)cc1 [Compound A-7] | 56 | 49 | 18.8 ± 6.9 | 21.7 ± 9.6 | – | – | – | – | – | – | – | – | – | – | –
11 | 18 | – | 566 | > 1000 | O=C(O)[C@@H](Cc1c[nH]c2ccccc12)NS(=O)(=O)c1ccc(-c2nc(-c3ccccc3)no2)cc1 [Compound A-9] | – | – | – | – | – | – | 30 | 51 | 38.7 ± 5.8 | 27.0 ± 9.7 | – | – | – | – | –
12 | 65 | – | > 1000 | > 1000 | C[C@@H](NS(=O)(=O)c1ccc(-c2nc(-c3ccccc3)no2)cc1)C(=O)O [Compound A-10] | 43 | 41 | 24.5 ± 7.8 | 25.2 ± 17.0 | – | – | – | – | – | – | – | – | – | – | –
